pKi: −log10 of the molar value.
Tests used:
Serine protease 1 = target: T1, Serine protease 1 (Bos taurus, UniProt P00760); assay: Enzyme Inhibition Assay; conditions: pH 7.4; 22 °C
T1 sequence (P00760 whole entry): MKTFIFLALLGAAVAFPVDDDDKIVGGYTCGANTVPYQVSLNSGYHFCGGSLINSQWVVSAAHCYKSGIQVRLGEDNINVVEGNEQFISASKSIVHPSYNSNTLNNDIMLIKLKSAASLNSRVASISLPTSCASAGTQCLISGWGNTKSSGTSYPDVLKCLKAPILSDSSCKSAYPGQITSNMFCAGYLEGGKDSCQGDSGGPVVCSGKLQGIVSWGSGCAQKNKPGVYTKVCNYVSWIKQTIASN
Procedure: (§1) The apparent Ki values were then calculated according to the Cheng-Prusoff equation: Ki = IC50/1 + [S]/Km.

Coagulation factor VII = target: T2, Coagulation factor VII (Homo sapiens, UniProt P08709); assay: Enzyme Inhibition Assay; conditions: pH 7.4; 22 °C
T2 sequence (P08709 whole entry): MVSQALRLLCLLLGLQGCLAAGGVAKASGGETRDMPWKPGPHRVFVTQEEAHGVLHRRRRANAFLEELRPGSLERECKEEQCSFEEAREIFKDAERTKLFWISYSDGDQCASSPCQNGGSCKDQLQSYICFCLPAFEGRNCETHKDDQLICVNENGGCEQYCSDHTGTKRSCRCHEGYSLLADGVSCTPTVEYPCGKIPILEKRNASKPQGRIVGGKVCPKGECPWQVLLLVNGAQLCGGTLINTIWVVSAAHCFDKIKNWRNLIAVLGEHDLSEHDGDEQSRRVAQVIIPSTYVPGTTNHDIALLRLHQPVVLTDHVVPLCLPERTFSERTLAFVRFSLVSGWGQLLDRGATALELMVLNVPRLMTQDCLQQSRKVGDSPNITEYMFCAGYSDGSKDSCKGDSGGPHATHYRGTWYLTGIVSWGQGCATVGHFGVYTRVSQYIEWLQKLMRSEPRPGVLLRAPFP
Procedure: as §1

pKi (Serine protease 1) | pKi (Coagulation factor VII) | Structure (SMILES)
– | 5.85 | CN(C)CCNC(=O)NCc1cccc(-c2cc(CC(=O)O)cc(-c3cc4nc(N)ccc4[nH]3)c2O)c1 [2-(3-{5-amino-1H-pyrrolo[3,2-b]pyridin-2-yl}-5-{3-[({[2-(dimethylamino)ethyl]carbamoyl}amino)methyl]phenyl}-4-hydroxyphenyl)acetic acid]
< 3.82 | – | O=C(O)Cc1cc(-c2cccc([N+](=O)[O-])c2)c(O)c(-c2nc3ccccc3[nH]2)c1 [2-[3-(1H-1,3-benzodiazol-2-yl)-4-hydroxy-5-(3-nitrophenyl)phenyl]acetic acid]

The remaining lines, values behind:

Structure (SMILES) | pKi (Serine protease 1) | pKi (Coagulation factor VII)
Nc1ccc2[nH]c(-c3cc(CC(=O)O)cc(-c4cccc([N+](=O)[O-])c4)c3O)nc2n1 [2-(3-{5-amino-1H-imidazo[4,5-b]pyridin-2-yl}-4-hydroxy-5-(3-nitrophenyl)phenyl)acetic acid] | < 3.82 | –
CS(=O)(=O)c1cccc(-c2cc(CC(=O)O)cc(-c3cc4nc(N)ccc4[nH]3)c2O)c1 [2-(3-{5-amino-1H-pyrrolo[3,2-b]pyridin-2-yl}-4-hydroxy-5-(3-methanesulfonylphenyl)phenyl)acetic acid] | – | 5.13
NC(=O)Nc1cccc(-c2cc(CC(=O)O)cc(-c3cc4nc(N)ccc4[nH]3)c2O)c1 [2-(3-{5-amino-1H-pyrrolo[3,2-b]pyridin-2-yl}-5-[3-(carbamoylamino)phenyl]-4-hydroxyphenyl)acetic acid] | – | 4.92
